Experimental data as given in the NIST ThermoML archive (doi:10.1016/j.jct.2012.03.003).

Assay: xn = mol fraction of the nth substance listed
Conditions: Liquid, Vibrating tube method

COc1cc2c(cc1O)CC1c3c(cc(O)c(OC)c3-2)CCN1C (stereo not given) [boldine] + CCO
Conditions | mass density [kg/m3]
342.88 K, 1000 kPa, x1 = 0.0267 | 802.49
342.88 K, 2000 kPa, x1 = 0.0267 | 803.51
342.88 K, 3000 kPa, x1 = 0.0267 | 804.51
342.88 K, 4000 kPa, x1 = 0.0267 | 805.52
342.88 K, 5000 kPa, x1 = 0.0267 | 806.51
342.88 K, 6000 kPa, x1 = 0.0267 | 807.51
342.88 K, 7000 kPa, x1 = 0.0267 | 808.51
342.88 K, 8000 kPa, x1 = 0.0267 | 809.49
342.88 K, 9000 kPa, x1 = 0.0267 | 810.47
342.88 K, 10000 kPa, x1 = 0.0267 | 811.43
342.88 K, 11000 kPa, x1 = 0.0267 | 812.4
342.88 K, 12000 kPa, x1 = 0.0267 | 813.36
342.88 K, 13000 kPa, x1 = 0.0267 | 814.3
342.88 K, 14000 kPa, x1 = 0.0267 | 815.22
342.88 K, 15000 kPa, x1 = 0.0267 | 816.14
342.88 K, 16000 kPa, x1 = 0.0267 | 817.05
342.88 K, 17000 kPa, x1 = 0.0267 | 817.95
342.88 K, 18000 kPa, x1 = 0.0267 | 818.81
342.88 K, 19000 kPa, x1 = 0.0267 | 819.68
342.88 K, 20000 kPa, x1 = 0.0267 | 820.53
342.9 K, 1000 kPa, x1 = 0.0196 | 790.39
342.9 K, 2000 kPa, x1 = 0.0196 | 791.42
342.9 K, 3000 kPa, x1 = 0.0196 | 792.45
342.9 K, 4000 kPa, x1 = 0.0196 | 793.47
342.9 K, 5000 kPa, x1 = 0.0196 | 794.49
342.9 K, 6000 kPa, x1 = 0.0196 | 795.52
342.9 K, 7000 kPa, x1 = 0.0196 | 796.52
342.9 K, 8000 kPa, x1 = 0.0196 | 797.53
342.9 K, 9000 kPa, x1 = 0.0196 | 798.53
342.9 K, 10000 kPa, x1 = 0.0196 | 799.52
342.9 K, 11000 kPa, x1 = 0.0196 | 800.49
342.9 K, 12000 kPa, x1 = 0.0196 | 801.46
342.9 K, 13000 kPa, x1 = 0.0196 | 802.42
342.9 K, 14000 kPa, x1 = 0.0196 | 803.37
342.9 K, 15000 kPa, x1 = 0.0196 | 804.3
342.9 K, 16000 kPa, x1 = 0.0196 | 805.22
342.9 K, 17000 kPa, x1 = 0.0196 | 806.13
342.9 K, 18000 kPa, x1 = 0.0196 | 807.03
342.9 K, 19000 kPa, x1 = 0.0196 | 807.91
342.9 K, 20000 kPa, x1 = 0.0196 | 808.78
342.92 K, 1000 kPa, x1 = 0.0012 | 748.44
342.92 K, 1000 kPa, x1 = 0.0074 | 761.5
342.92 K, 2000 kPa, x1 = 0.0012 | 749.56
342.92 K, 2000 kPa, x1 = 0.0074 | 762.58
342.92 K, 3000 kPa, x1 = 0.0012 | 750.65
342.92 K, 3000 kPa, x1 = 0.0074 | 763.66
342.92 K, 4000 kPa, x1 = 0.0012 | 751.76
342.92 K, 4000 kPa, x1 = 0.0074 | 764.73
342.92 K, 5000 kPa, x1 = 0.0012 | 752.85
342.92 K, 5000 kPa, x1 = 0.0074 | 765.81
342.92 K, 6000 kPa, x1 = 0.0012 | 753.94
342.92 K, 6000 kPa, x1 = 0.0074 | 766.87
342.92 K, 7000 kPa, x1 = 0.0012 | 755.02
342.92 K, 7000 kPa, x1 = 0.0074 | 767.93
342.92 K, 8000 kPa, x1 = 0.0012 | 756.1
342.92 K, 8000 kPa, x1 = 0.0074 | 768.98
342.92 K, 9000 kPa, x1 = 0.0012 | 757.16
342.92 K, 9000 kPa, x1 = 0.0074 | 770.04
342.92 K, 10000 kPa, x1 = 0.0012 | 758.21
342.92 K, 10000 kPa, x1 = 0.0074 | 771.07
342.92 K, 11000 kPa, x1 = 0.0012 | 759.27
342.92 K, 11000 kPa, x1 = 0.0074 | 772.09
342.92 K, 12000 kPa, x1 = 0.0012 | 760.3
342.92 K, 12000 kPa, x1 = 0.0074 | 773.12
342.92 K, 13000 kPa, x1 = 0.0012 | 761.33
342.92 K, 13000 kPa, x1 = 0.0074 | 774.1
342.92 K, 14000 kPa, x1 = 0.0012 | 762.33
342.92 K, 14000 kPa, x1 = 0.0074 | 775.1
342.92 K, 15000 kPa, x1 = 0.0012 | 763.33
342.92 K, 15000 kPa, x1 = 0.0074 | 776.07
342.92 K, 16000 kPa, x1 = 0.0012 | 764.31
342.92 K, 16000 kPa, x1 = 0.0074 | 777.04
342.92 K, 17000 kPa, x1 = 0.0012 | 765.26
342.92 K, 17000 kPa, x1 = 0.0074 | 777.98
342.92 K, 18000 kPa, x1 = 0.0012 | 766.22
342.92 K, 18000 kPa, x1 = 0.0074 | 778.92
342.92 K, 19000 kPa, x1 = 0.0012 | 767.14
342.92 K, 19000 kPa, x1 = 0.0074 | 779.83
342.92 K, 20000 kPa, x1 = 0.0012 | 768.07
342.92 K, 20000 kPa, x1 = 0.0074 | 780.71
343.02 K, 1000 kPa, x1 = 0.0136 | 775.25
343.02 K, 2000 kPa, x1 = 0.0136 | 776.31
343.02 K, 3000 kPa, x1 = 0.0136 | 777.37
343.02 K, 4000 kPa, x1 = 0.0136 | 778.42
343.02 K, 5000 kPa, x1 = 0.0136 | 779.47
343.02 K, 6000 kPa, x1 = 0.0136 | 780.52
343.02 K, 7000 kPa, x1 = 0.0136 | 781.56
343.02 K, 8000 kPa, x1 = 0.0136 | 782.6
343.02 K, 9000 kPa, x1 = 0.0136 | 783.63
343.02 K, 10000 kPa, x1 = 0.0136 | 784.63
343.02 K, 11000 kPa, x1 = 0.0136 | 785.65
343.02 K, 12000 kPa, x1 = 0.0136 | 786.65
343.02 K, 13000 kPa, x1 = 0.0136 | 787.64
343.02 K, 14000 kPa, x1 = 0.0136 | 788.62
343.02 K, 15000 kPa, x1 = 0.0136 | 789.58
343.02 K, 16000 kPa, x1 = 0.0136 | 790.53
343.02 K, 17000 kPa, x1 = 0.0136 | 791.46
343.02 K, 18000 kPa, x1 = 0.0136 | 792.39
343.02 K, 19000 kPa, x1 = 0.0136 | 793.28
343.02 K, 20000 kPa, x1 = 0.0136 | 794.17
352.79 K, 1000 kPa, x1 = 0.0196 | 780.8
352.79 K, 2000 kPa, x1 = 0.0196 | 781.92
352.79 K, 3000 kPa, x1 = 0.0196 | 783.03
352.79 K, 4000 kPa, x1 = 0.0196 | 784.09
352.79 K, 5000 kPa, x1 = 0.0196 | 785.23
352.79 K, 6000 kPa, x1 = 0.0196 | 786.32
352.79 K, 7000 kPa, x1 = 0.0196 | 787.4
352.79 K, 8000 kPa, x1 = 0.0196 | 788.47
352.79 K, 9000 kPa, x1 = 0.0196 | 789.53
352.79 K, 10000 kPa, x1 = 0.0196 | 790.58
352.79 K, 11000 kPa, x1 = 0.0196 | 791.62
352.79 K, 12000 kPa, x1 = 0.0196 | 792.64
352.79 K, 13000 kPa, x1 = 0.0196 | 793.65
352.79 K, 14000 kPa, x1 = 0.0196 | 794.65
352.79 K, 15000 kPa, x1 = 0.0196 | 795.64
352.79 K, 16000 kPa, x1 = 0.0196 | 796.61
352.79 K, 17000 kPa, x1 = 0.0196 | 797.57
352.79 K, 18000 kPa, x1 = 0.0196 | 798.51
352.79 K, 19000 kPa, x1 = 0.0196 | 799.44
352.79 K, 20000 kPa, x1 = 0.0196 | 800.36
352.81 K, 1000 kPa, x1 = 0.0012 | 738.74
352.81 K, 1000 kPa, x1 = 0.0136 | 765.67
352.81 K, 2000 kPa, x1 = 0.0012 | 739.95
352.81 K, 2000 kPa, x1 = 0.0136 | 766.82
352.81 K, 3000 kPa, x1 = 0.0012 | 741.15
352.81 K, 3000 kPa, x1 = 0.0136 | 767.97
352.81 K, 4000 kPa, x1 = 0.0012 | 742.33
352.81 K, 4000 kPa, x1 = 0.0136 | 769.1
352.81 K, 5000 kPa, x1 = 0.0012 | 743.51
352.81 K, 5000 kPa, x1 = 0.0136 | 770.24
352.81 K, 6000 kPa, x1 = 0.0012 | 744.68
352.81 K, 6000 kPa, x1 = 0.0136 | 771.36
352.81 K, 7000 kPa, x1 = 0.0012 | 745.85
352.81 K, 7000 kPa, x1 = 0.0136 | 772.46
352.81 K, 8000 kPa, x1 = 0.0012 | 746.99
352.81 K, 8000 kPa, x1 = 0.0136 | 773.56
352.81 K, 9000 kPa, x1 = 0.0012 | 748.13
352.81 K, 9000 kPa, x1 = 0.0136 | 774.65
352.81 K, 10000 kPa, x1 = 0.0012 | 749.26
352.81 K, 10000 kPa, x1 = 0.0136 | 775.73
352.81 K, 11000 kPa, x1 = 0.0012 | 750.37
352.81 K, 11000 kPa, x1 = 0.0136 | 776.81
352.81 K, 12000 kPa, x1 = 0.0012 | 751.47
352.81 K, 12000 kPa, x1 = 0.0136 | 777.86
352.81 K, 13000 kPa, x1 = 0.0012 | 752.55
352.81 K, 13000 kPa, x1 = 0.0136 | 778.9
352.81 K, 14000 kPa, x1 = 0.0012 | 753.61
352.81 K, 14000 kPa, x1 = 0.0136 | 779.93
352.81 K, 15000 kPa, x1 = 0.0012 | 754.67
352.81 K, 15000 kPa, x1 = 0.0136 | 780.95
